# Experimental data: patent US4216209A, “Tripeptide angiotensin converting enzyme inhibitors” (American Home Products Corporation, priority 1979, dated 1980)
# Non-standard residues stand in square brackets, D forms with d. Residues, ends and D or L forms follow the SMILES beside them. Mpa = O=C(O)CCS
# Tested on: spontaneously hypertensive rat (SHR)
# Test: Antihypertensive test in conscious spontaneously hypertensive rats: arterial BP and pressor/depressor responses to i.v. angiotensin I and bradykinin after oral dosing
# Format: in vivo
# Details: male SHR, 50 mg/kg of body weight
# Description: Male SHR of the Okamoto-Aoki strain (purchased from Charles River Lakeview, Boston, Mass.) ranging in weight between 280 and 370 g are anesthetized with diethyl ether. Their left femoral arteries and veins are cannulated with polyethylene tubing of the appropriate size. Each animal is then placed in a rubber mesh jacket which is secured with four towel clamps. The animal is suspended via the towel clamps from a bar and allowed to recover from the anesthesia. The arterial cannula is connected to a Statham pressure transducer (Model P23, Gould Statham Instruments, Hato Rey, Porto Rico) which, in turn, is attached to a polygraph for recording arterial blood pressure (BP) and pulse rate.
# When the BP has stabilized, the intravenous injection of the agonists, angiotensin I (AI) or bradykinin (B) is initiated. Each of the agonists is prepared daily from refrigerated stock solution (using distilled water as the diluent), and injected in a volume of 1 ml/kg (using physiological saline as the diluent) at the following doses: AI, 0.125 μg/kg and B, 5 μg/kg.
# Enough time is allowed for the BP to return to preinjection levels before the next agonist is given. A dose of the compound to be tested is given orally seven to ten minutes after the injection of the last agonist. Four rats are used and the test compound is given by gastric gavage in a volume of 5 ml/kg of body weight. Heart rate and BP are measured at 5, 10, 15, 30, 45 and 60 minutes and at hourly intervals thereafter for a period of at least four hours after drug administration. At one and two hours after the test compound has been given, AI and B are injected again at the same concentration and in the same order as during the control period.
smiles,measurement,setting,value
CC(C)C[C@H](NC(=O)[C@H](Cc1c[nH]cn1)NC(=O)[C@@H]1CCCN1C(=O)CCS)C(=O)O [N-[N-[1-(3-Mercapto-1-oxopropyl)prolyl]histidyl]leucine] ([Mpa]PHL-OH),decrease in mean arterial BP,"oral (gastric gavage), measured two hours after administration",8%
same,reduction in angiotensin I response on BP,"oral, angiotensin I 0.125 μg/kg i.v.",61%
same,potentiation of bradykinin response,"oral, bradykinin 5 μg/kg i.v.",564%
